# The source made the active and inactive calls.
# Legend:
# [1] = viability inhibitors of stage V gametocytes – luminescence, dose response (AID 1117278); assay type: functional, cell-based;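 also: gametocytes exposed to compound for 24 hours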
# [2] = viability loss in human Jurkat cells – cell-based, luminescence, cytotoxicity control for P. falciparum gametocyte viability project, dose response (AID 1117277); assay type: functional;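 also: potency reflects loss of cellular ATP meaning fewer viable cells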
# [3] = biological target: T1, Oxysterols receptor LXR-beta (Homo sapiens, UniProt P55055); assay type: functional, cell-based;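 also: agonist activity at LXR measured by a cell-based luminescence readout across a dose range, run as a counterscreen for daf-12 agonists; HEK293 cells with Gal4-LXR fusion and GAL4-driven luciferase reporter; potency for activation of Gal4-LXR reporter so compounds are agonists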
# T1 sequence (P55055 whole entry): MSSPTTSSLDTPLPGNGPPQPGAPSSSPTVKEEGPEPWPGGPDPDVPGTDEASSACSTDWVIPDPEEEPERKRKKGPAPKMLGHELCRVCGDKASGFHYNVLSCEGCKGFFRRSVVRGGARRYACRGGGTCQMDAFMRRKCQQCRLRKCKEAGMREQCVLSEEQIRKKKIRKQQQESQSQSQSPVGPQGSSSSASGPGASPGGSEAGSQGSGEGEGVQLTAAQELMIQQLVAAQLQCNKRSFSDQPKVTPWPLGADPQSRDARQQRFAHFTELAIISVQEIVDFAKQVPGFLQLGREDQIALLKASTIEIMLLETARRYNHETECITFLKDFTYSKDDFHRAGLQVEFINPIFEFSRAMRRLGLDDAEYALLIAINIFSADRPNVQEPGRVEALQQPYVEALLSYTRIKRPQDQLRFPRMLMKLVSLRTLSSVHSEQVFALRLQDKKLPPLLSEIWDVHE
# [4] = biological target: T2, Tyrosine-protein phosphatase non-receptor type 7 (Homo sapiens, UniProt P35236); experiment: HePTP tyrosine phosphatase activity blockers – biochemical, absorbance, leukemia target, primary screen (AID 521); assay type: functional
# T2 sequence (P35236 whole entry): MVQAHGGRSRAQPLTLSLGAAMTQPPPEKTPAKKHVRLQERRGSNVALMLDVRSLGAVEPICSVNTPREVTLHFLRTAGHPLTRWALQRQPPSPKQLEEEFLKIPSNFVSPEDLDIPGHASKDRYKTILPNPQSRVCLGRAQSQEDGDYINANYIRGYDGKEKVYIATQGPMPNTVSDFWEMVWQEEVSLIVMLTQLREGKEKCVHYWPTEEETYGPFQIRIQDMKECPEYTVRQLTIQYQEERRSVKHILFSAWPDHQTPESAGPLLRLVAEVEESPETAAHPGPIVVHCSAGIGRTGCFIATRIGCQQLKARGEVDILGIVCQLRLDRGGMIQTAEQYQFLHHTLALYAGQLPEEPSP
# [5] = biological target: T3, Short transient receptor potential channel 4 (Mus musculus, UniProt Q9QUQ5); experiment: block of DAMGO-driven TRPC4 calcium entry – cell-based, HEK293 TRPC4/mu-opioid, Fluo-4 calcium, dose response (AID 434942); assay type: functional;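 also: potency of inhibitors blocking the TRPC4 calcium response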
# T3 sequence (Q9QUQ5 whole entry): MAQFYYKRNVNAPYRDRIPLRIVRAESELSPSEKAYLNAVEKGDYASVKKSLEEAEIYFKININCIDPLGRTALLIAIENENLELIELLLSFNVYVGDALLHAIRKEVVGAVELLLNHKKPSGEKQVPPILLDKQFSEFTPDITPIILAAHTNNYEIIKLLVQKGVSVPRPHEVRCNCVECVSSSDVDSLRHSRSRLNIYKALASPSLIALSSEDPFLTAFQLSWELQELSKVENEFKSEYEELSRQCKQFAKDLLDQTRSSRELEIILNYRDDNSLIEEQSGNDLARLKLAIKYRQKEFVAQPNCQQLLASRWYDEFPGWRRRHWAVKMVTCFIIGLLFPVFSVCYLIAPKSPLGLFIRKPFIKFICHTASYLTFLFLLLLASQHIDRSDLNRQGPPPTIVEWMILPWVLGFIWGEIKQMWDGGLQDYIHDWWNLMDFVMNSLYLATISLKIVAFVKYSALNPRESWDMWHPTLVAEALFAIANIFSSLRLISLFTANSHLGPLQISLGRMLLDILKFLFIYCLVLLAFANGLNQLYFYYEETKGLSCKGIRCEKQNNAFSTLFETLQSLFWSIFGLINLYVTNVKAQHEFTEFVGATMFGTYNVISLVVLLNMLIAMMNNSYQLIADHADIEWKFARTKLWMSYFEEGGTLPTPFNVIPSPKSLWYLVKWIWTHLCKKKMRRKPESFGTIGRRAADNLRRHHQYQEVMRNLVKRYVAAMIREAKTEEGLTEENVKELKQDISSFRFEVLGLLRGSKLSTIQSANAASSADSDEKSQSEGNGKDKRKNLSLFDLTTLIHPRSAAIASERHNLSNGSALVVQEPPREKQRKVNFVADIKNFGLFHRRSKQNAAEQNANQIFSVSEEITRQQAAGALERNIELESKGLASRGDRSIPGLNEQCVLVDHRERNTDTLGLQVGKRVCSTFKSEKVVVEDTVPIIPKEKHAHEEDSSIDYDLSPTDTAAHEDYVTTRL
# [6] = biological target: T4, DNA repair protein RAD52 homolog (Homo sapiens, UniProt P43351); assay type: functional, biochemical
# T4 sequence (P43351 whole entry): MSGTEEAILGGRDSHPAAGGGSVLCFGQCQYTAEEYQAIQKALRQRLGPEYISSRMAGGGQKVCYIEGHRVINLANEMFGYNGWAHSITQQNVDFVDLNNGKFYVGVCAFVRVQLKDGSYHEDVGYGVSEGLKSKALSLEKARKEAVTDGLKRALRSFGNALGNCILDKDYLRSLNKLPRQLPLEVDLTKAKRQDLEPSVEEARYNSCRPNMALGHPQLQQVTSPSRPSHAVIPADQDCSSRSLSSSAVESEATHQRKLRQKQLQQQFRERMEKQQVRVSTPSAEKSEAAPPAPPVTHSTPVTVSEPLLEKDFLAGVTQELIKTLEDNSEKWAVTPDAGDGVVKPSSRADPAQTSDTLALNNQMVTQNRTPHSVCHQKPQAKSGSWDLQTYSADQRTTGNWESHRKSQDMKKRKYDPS
# [7] = viability loss in HEK293 cells – cell-based, plate reader, cherry-picked samples, cytotoxicity control, dose response (AID 743446); assay type: functional
# [8] = luciferase reporter signal suppression in cells – H4 neuroglioma cells, luminescence, dose response (AID 1990); assay type: functional, cell-based
# [9] = A549 cell cytotoxicity, dose response, cytotoxicity control, plate reader, cherry-pick, antagonist series (AID 743412); assay type: functional, cell-based
# [10] = Luminescence Cell-Based Dose Response HTS to Identify Inhibitors of 5'UTR Stem-Loop Driven Prion Protein mRNA Translation in H4 Neuroglioblastoma Cells. [Related pubchem assays: 1827 (Project Summary), 1813 (Primary HTS)]; assay type: functional
# [11] = blockers of bursicon-stimulated LGR2 cAMP reporter – cell-based, HEK293, CRE-luciferase reporter, cherry pick, set 2, dose response (AID 743343); assay type: functional;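 also: transfected cells were stimulated with diluted bursicon conditioned medium after compound addition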
# [12] = toxicity toward HepG2 liver cells – cell-based, plate reader, cherry-pick, antagonist series, cytotoxicity control, dose response (AID 743416); assay type: functional
# [13] = alpha-synuclein stem-loop luciferase translation blockers – H4 neuroglioma cells, luminescence, confirmation (AID 1988); assay type: functional, cell-based
# [14] = blockade of melanocortin 4 receptor signaling – cell-based, plate reader, cherry pick, counter-screen for LGR2 antagonist project, dose response (AID 743444); assay type: functional;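 also: transfected HEK 293 cells stimulated with alpha-MSH peptide; potency of inhibitors of the alpha-MSH evoked signal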
# [15] = loss of viability in HepG2 cells – cell-based, CellTiter-Glo, cherry-picked, cytotoxicity control for Shn3 inhibitor project, dose response (AID 624134); assay type: functional
# [16] = biological target: T5, Endoribonuclease toxin MazF (Escherichia coli K-12, UniProt P0AE70); experiment: activation of MazEF endoribonuclease cleavage – biochemical, fluorescence, single-stranded RNA substrate, uHTS hits, dose response (AID 588481); assay type: functional
# T5 sequence (P0AE70 whole entry): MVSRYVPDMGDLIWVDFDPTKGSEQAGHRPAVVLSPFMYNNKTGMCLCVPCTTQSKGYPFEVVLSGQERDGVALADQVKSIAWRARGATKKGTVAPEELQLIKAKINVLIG
# Albumin = Albumin (Bos taurus, UniProt P02769); experiment: Counterscreen for inhibitors of T-cell receptor (TCR)-CD3 interaction: Fluorescence-based biochemical high throughput dose response assay to identify inhibitors of T-cell receptor (TCR)-CD3 interaction using a TAMRA-labeled BSA probe.; assay type: functional
# Sequence of Albumin (P02769 whole entry): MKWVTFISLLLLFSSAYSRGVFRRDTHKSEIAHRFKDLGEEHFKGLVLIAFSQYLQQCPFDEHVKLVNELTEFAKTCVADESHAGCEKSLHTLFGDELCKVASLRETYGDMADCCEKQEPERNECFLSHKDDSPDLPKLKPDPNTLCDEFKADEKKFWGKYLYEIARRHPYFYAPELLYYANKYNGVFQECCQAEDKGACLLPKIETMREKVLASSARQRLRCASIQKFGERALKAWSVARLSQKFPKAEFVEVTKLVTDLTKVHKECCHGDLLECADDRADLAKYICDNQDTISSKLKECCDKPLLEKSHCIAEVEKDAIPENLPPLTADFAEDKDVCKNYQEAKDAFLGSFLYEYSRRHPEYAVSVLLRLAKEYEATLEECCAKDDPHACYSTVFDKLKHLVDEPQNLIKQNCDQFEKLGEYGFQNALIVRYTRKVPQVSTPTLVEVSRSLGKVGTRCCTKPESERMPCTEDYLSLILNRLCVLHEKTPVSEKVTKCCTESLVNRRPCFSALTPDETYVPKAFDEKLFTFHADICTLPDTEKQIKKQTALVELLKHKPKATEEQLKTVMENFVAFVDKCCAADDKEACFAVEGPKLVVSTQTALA
# [17] = biological target: T5, Endoribonuclease toxin MazF; experiment: substrate-only fluorescence increase artefacts – biochemical, single-stranded RNase substrate, counter-screen for MazEF activator project, dose response (AID 588502); assay type: functional
# [18] = biological target: T6, Trace amine-associated receptor 1 (Homo sapiens, UniProt Q96RJ0); experiment: Counterscreen for agonists of the human trace amine associated receptor 1 (hTAAR1): Fluorescence-based cell-based high throughput dose response assay to identify hTAAR1 agonist that also desensitize TAAR1 receptor response.; assay type: functional
# T6 sequence (Q96RJ0 whole entry): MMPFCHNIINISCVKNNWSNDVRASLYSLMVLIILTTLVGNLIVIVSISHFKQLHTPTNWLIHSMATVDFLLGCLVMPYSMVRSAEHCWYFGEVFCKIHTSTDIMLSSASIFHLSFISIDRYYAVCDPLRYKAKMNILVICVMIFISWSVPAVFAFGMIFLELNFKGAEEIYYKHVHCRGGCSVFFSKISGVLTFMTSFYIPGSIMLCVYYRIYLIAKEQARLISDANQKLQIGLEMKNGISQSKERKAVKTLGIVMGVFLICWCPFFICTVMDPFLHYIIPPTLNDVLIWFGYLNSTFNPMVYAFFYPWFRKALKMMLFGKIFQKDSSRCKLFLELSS
# cells [19] = assay type: functional, cell-based
# [20] = biological target: T6, Trace amine-associated receptor 1; experiment: Fluorescence-based cell-based high throughput dose response assay to identify agonists of the human trace amine associated receptor 1 (TAAR1).; assay type: functional
# cells [21] = assay type: functional, cell-based; remark: listed apart in the source
# [22] = P. falciparum Dd2 growth inhibitors, dose response, SYBR Green, cherry-picked samples (AID 1159567); assay type: functional, cell-based
# [23] = toxicity to human hepatoma HepG2 cells – cell-based, cherry-picked samples, cytotoxicity control, dose response (AID 1159577); assay type: functional
# Leucine aminopeptidase = biological target: T7, Leucine aminopeptidase (Plasmodium falciparum 3D7, UniProt Q8IL11); experiment: P. falciparum M17LAP inhibitors, primary screen, biochemical, fluorogenic H-Leu-NHMec substrate, 1536-well (AID 1619); assay type: functional
# T7 sequence (Q8IL11 whole entry): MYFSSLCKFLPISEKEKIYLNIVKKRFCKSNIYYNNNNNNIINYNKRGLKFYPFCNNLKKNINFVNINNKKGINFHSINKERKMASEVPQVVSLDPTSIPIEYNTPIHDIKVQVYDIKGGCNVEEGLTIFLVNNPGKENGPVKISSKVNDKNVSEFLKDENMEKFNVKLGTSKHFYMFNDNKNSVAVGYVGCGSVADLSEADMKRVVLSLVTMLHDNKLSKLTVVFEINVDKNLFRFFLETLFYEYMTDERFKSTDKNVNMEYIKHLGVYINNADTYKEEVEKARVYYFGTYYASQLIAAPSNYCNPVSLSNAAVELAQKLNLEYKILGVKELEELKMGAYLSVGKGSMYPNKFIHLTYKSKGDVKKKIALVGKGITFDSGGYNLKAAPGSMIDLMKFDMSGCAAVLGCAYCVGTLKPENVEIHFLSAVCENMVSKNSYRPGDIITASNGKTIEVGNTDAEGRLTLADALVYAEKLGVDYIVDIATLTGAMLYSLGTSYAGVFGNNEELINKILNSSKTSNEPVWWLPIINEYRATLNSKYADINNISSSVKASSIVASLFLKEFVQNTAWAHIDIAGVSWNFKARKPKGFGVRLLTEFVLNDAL
compound,measurement,setting,value
CCOC(=O)CSc1nc2cc3c(cc2cc1C)OCO3,IC50,[1],> 109 µM (inactive)
same,IC50,[2],> 83.3 µM (inactive)
COc1ccc(-c2nc(N)n(C(=O)c3ccccc3)n2)cc1,IC50,[1],> 109 µM (inactive)
same,IC50,[2],> 83.3 µM (inactive)
C(=C\n1nnc2ccccc21)/c1ccccn1,EC50,[3],> 67.5 µM (inactive)
COc1ccc(Cc2nnc(NC(=O)c3ccco3)s2)cc1OC,IC50,[4],> 100 µM (not active)
COCC1CCN(Cc2nc(-c3cccs3)no2)C1 (stereo not given),EC50,[3],> 67.5 µM (inactive)
CCn1c2ccccc2c2nnc(SCC(=O)N3CC(C)OC(C)C3)nc21 (stereo not given),IC50,[4],> 100 µM (not active)
Cc1cc(C)cc(OCc2nc(-c3cccnc3)no2)c1,IC50,[1],> 109 µM (inactive)
same,IC50,[2],> 83.3 µM (inactive)
Cn1c(=O)c2c(nc(SCc3cccnc3)n2Cc2ccc(F)cc2)n(C)c1=O,EC50,[5],0.944 µM (active)
same,IC50,[4],> 100 µM (not active)
Cc1ccccc1Cn1c2ccccc2c2cnn(CC(=O)NCCCN3CCN(C)CC3)c(=O)c21,AC50,[6],9.43 µM (active)
COc1ccc2cc3cc(C(=O)NC4CC4)sc3nc2c1,AC50,[7],> 52 µM (inactive)
same,EC50,[8],6.66 µM (inconclusive)
same,AC50,[9],29.1 µM (active)
same,EC50,[10],7.47 µM (active)
same,AC50,[11],3.86 µM (active)
same,AC50,[12],> 52 µM (inactive)
same,EC50,[13],5.41 µM (active)
same,AC50,[14],4.27 µM (active)
O=C1/C(=C/Nc2ccccc2O)c2ccccc2C(=O)N1c1nccs1,AC50,[15],> 70 µM (inactive)
same,EC50,[16],> 99 µM (inactive)
same,IC50,Albumin,> 94.1 µM (inactive)
same,EC50,[17],> 99 µM (inactive)
Cc1ccc(OCc2ccc(Br)cc2)c([N+](=O)[O-])n1,EC50,[3],> 67.5 µM (inactive)
Cc1cccc(C(=O)NCC(=O)NNC(=O)c2ccccc2O)c1,IC50,Albumin,> 94 µM (inactive)
CN(C)CCN(C(=O)c1ccc2ccccc2c1)c1nc2cc3c(cc2s1)OCO3,AC50,[6],28.3 µM (active)
COc1ccccc1CCn1cnc(-c2ccc(Cl)cc2)c1CC(C)C,AC50,[7],> 52 µM (inactive)
same,IC50,[18],6.55 µM (active)
same,AC50,[9],23.2 µM (active)
same,IC50,cells [19],14.2 µM (inactive)
same,AC50,[11],19 µM (active)
same,AC50,[12],31.2 µM (active)
same,EC50,[20],2.37 µM (active)
same,EC50,cells [21],> 30 µM (inactive)
same,AC50,[14],17.7 µM (active)
CO[C@H]1CN(C)C(=O)c2cc(NC(=O)c3ccc(-c4ccccc4)cc3)ccc2OC[C@H](C)NC[C@H]1C,AC50,[22],5.36 µM (active)
same,AC50,[23],10.1 µM (active)
COc1cccc(S(=O)(=O)Nc2ccc3c(c2)[C@@H]2C[C@H](CC(=O)NCc4ccc(Cl)cc4)O[C@@H](CO)[C@@H]2O3)c1,AC50,[22],5.66 µM (active)
same,AC50,[23],> 39 µM (inactive)
Fc1ccc(Nc2nc(-c3ccncc3)cs2)cc1,IC50,[1],> 109 µM (inactive)
same,IC50,[2],> 83.2 µM (inactive)
Cn1nnnc1SCC1=C(C(=O)O)N2C(=O)[C@@H](NC(=O)[C@H](O)c3ccccc3)[C@H]2SC1 [CEFAMANDOLE SODIUM],IC50,Leucine aminopeptidase,12.1 µM (active)
same,IC50,[4],0.1 µM (active)
